Laboratory results: ChEMBL document CHEMBL1201862, “PubChem BioAssay data set” (2004)
The source made the active and inactive calls.

Columns and labels:
[1] = target: Aryl hydrocarbon receptor (Homo sapiens, UniProt P35869); assay: Luminescence-based cell-based high throughput dose response assay for activators of the Aryl Hydrocarbon Receptor (AHR). [Related pubchem assays: 2796 (Primary screen (AHR activators in singlicate)), 2845 (Confirmation screen (AHR activators in triplicate)), 434939 (Counterscreen (PXR activators in triplicate)), 2804 (Summary (AHR activators))]; format: ADME
Chain of Aryl hydrocarbon receptor (P35869 whole entry): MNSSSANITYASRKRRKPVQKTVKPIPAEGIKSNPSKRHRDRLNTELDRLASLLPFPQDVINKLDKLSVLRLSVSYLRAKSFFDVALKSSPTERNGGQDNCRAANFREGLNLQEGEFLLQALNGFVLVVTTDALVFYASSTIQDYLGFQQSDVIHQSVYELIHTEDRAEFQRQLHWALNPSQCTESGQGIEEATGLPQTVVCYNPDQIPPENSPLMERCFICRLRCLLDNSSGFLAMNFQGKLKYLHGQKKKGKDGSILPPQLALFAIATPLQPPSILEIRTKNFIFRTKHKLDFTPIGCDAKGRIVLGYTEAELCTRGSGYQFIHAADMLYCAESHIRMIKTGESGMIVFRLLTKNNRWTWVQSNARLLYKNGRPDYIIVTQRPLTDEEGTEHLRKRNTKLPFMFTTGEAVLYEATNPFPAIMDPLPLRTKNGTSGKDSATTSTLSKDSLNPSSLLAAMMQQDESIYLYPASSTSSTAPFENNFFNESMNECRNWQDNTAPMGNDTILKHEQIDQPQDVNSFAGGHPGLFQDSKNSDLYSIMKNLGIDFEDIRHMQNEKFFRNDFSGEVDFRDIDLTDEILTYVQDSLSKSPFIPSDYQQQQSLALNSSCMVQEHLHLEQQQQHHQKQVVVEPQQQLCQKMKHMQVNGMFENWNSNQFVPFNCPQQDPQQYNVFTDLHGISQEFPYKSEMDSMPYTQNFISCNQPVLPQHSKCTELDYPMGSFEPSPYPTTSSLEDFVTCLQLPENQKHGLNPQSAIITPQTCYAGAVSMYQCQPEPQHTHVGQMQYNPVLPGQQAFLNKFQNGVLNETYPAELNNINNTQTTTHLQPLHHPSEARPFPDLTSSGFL

[2] = HEp-2 cell cytotoxicity, dose response, cytotoxicity control for RSV inhibitor project, HTS (AID 2410); format: functional; conditions: human respiratory syncytial virus
[3] = Luminescence Cell-Based Dose Retest to Confirm Inhibitors of Cancer Stem Cells. [Related pubchem assays (depositor defined):AID2717, AID2721]; format: functional; conditions: Homo sapiens
[4] = HepG2 cell cytotoxicity, dose response, cytotoxicity control for Shn3 inhibitor project, CellTiter-Glo, cherry-picked (AID 624134); format: functional, cell-based
[5] = target: T1, Sphingosine 1-phosphate receptor 4 (Homo sapiens, UniProt O95977); assay: Fluorescence dose response cell-based high throughput screening assay for antagonists of the Sphingosine 1-Phosphate Receptor 4 (S1P4). [Related pubchem assays: 1524 (Confirmation in triplicates.), 1510 (Primary screen.)]; format: functional
T1 sequence (O95977 whole entry): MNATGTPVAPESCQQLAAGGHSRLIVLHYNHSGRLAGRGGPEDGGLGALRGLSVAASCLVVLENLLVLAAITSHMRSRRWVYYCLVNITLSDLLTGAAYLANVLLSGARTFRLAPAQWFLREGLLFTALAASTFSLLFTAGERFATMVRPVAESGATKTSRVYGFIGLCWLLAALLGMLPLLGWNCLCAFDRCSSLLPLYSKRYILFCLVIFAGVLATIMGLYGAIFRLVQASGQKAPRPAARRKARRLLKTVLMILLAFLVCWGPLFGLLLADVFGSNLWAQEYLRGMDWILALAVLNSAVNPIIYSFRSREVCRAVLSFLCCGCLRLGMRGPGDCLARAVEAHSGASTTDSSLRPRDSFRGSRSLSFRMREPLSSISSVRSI

Paired box protein Pax-8 = Paired box protein Pax-8 (Homo sapiens, UniProt Q06710); assay: inhibitors of PAX8-driven TPO luciferase reporter, dose response, RMG-I cells, cherry-pick (AID 687027); format: functional, cell-based;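 note: luciferase reporter driven by Pax8 target thyroperoxidase promoter measured by SteadyGlo luminescence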
Chain of Paired box protein Pax-8 (Q06710 whole entry): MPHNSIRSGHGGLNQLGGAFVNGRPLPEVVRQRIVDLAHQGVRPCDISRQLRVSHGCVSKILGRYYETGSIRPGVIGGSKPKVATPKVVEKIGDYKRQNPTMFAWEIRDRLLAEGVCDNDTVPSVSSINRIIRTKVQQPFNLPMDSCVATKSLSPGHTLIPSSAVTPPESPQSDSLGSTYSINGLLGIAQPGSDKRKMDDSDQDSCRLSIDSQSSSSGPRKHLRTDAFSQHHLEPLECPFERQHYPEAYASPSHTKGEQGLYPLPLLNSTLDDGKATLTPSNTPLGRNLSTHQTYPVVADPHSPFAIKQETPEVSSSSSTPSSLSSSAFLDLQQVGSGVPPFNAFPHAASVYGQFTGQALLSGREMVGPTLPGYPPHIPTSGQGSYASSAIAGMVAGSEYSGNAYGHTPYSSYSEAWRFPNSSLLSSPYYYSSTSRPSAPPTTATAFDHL

[6] = target: T2, Sphingosine 1-phosphate receptor 1 (Homo sapiens, UniProt P21453); format: functional
T2 sequence (P21453 whole entry): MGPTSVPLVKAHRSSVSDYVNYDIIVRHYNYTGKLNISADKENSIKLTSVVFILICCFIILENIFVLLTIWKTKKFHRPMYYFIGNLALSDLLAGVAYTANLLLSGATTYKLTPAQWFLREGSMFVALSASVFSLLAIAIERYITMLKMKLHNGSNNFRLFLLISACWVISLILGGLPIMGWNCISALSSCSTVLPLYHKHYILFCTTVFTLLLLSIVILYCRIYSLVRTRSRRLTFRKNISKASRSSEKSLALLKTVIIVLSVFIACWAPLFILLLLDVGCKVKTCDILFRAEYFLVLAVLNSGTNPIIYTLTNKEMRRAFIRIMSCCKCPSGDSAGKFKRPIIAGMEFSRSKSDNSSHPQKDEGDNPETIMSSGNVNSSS

Streptococcus = assay: Group A Streptococcus viability loss, dose response, counter-screen for streptokinase expression inhibitor project, luminescence, BacTiterGlo (AID 1915); format: functional, organism-based;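 note: potency for reduction of bacterial viability or growth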
[7] = inhibitors of SNCA 5'UTR-driven reporter translation, confirmation, H4 neuroglioma cells, luminescence (AID 1988); format: functional, cell-based
[8] = target: T3, Sphingosine 1-phosphate receptor 2 (Homo sapiens, UniProt O95136); assay: Late stage counterscreen assay for S1P4 antagonists: Fluorescence dose response cell-based screening assay for antagonists of the Sphingosine 1-Phosphate Receptor 2 (S1P2). [Related pubchem assays (depositor defined):AID1510, AID1524, AID1692, AID1853, AID2332, AID489009, AID489017]; format: functional
T3 sequence (O95136 whole entry): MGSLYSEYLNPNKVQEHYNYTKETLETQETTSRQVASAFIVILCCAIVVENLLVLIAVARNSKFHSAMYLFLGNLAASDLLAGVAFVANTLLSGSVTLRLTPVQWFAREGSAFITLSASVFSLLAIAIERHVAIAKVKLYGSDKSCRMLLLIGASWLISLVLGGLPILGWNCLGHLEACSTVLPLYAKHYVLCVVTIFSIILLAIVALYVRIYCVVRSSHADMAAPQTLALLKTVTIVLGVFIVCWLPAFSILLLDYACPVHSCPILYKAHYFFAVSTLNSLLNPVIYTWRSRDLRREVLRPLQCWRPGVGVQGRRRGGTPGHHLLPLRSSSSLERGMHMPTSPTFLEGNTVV

[9] = Shn3 3'UTR reporter inhibitors, dose response, cell-based, Clone20 osteoblasts, firefly luciferase, cherry-picked (AID 624132); format: functional;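 note: firefly luciferase luminescence from reporter carrying the Shn3 3'UTR in osteoblasts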
Streptokinase A = target: T4, Streptokinase A (Streptococcus pyogenes serotype M1, UniProt P10520); assay: S. pyogenes streptokinase expression inhibitors, potency, dose response, plasminogen activation absorbance, OD405 (AID 1914); format: functional, Streptococcus pyogenes M1 GAS;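 note: secreted streptokinase activity via plasminogen activation per viability signal from cell pellet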
T4 sequence (P10520 whole entry): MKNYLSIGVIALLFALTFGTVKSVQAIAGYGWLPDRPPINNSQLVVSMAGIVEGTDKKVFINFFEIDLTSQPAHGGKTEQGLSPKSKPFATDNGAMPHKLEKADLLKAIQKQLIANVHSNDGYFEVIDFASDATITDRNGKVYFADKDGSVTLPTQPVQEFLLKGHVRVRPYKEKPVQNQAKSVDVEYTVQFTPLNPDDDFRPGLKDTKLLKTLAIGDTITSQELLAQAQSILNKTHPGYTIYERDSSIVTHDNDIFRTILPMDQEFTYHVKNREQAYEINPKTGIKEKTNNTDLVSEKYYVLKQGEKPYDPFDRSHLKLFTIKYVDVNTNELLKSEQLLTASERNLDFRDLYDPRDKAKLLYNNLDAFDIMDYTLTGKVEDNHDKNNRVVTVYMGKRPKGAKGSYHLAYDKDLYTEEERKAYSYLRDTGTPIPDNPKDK

[10] = Luminescence Cell-Based Dose Response HTS to Identify Inhibitors of 5'UTR Stem-Loop Driven Prion Protein mRNA Translation in H4 Neuroglioblastoma Cells. [Related pubchem assays: 1827 (Project Summary), 1813 (Primary HTS)]; format: functional
[11] = target: T2, Sphingosine 1-phosphate receptor 1; assay: Late stage counterscreen assay for S1P4 antagonists: Fluorescence dose response cell-based screening assay for antagonists of the Sphingosine 1-Phosphate Receptor 1 (S1P1). [Related pubchem assays (depositor defined):AID1510, AID1524, AID1692, AID1853, AID2332, AID489009, AID489017]; format: functional
[12] = cytotoxicity toward NIH3T3 fibroblasts, dose response, counter-screen, cell-based, ATP luminescence, mouse fibroblasts (AID 2010); format: functional;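 note: cells exposed to compound for about 90 hours before reading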
[13] = inhibitors of firefly luciferase expression or activity, dose response, H4 neuroglioma cells, luminescence (AID 1990); format: functional, cell-based
[14] = test system: Streptococcus sp. 'group A'; assay: growth inhibition of control SK(-) GAS strain, dose response, counter-screen for streptokinase expression inhibitor project, luminescence, kanamycin, BacTiterGlo, confirmation (AID 1900); format: functional, organism-based
[15] = target: Sphingosine 1-phosphate receptor 3 (Homo sapiens, UniProt Q99500); assay: Late stage counterscreen assay for S1P4 antagonists: Fluorescence dose response cell-based screening assay for antagonists of the Sphingosine 1-Phosphate Receptor 3 (S1P3). [Related pubchem assays (depositor defined):AID1510, AID1524, AID1692, AID1853, AID2332, AID489009, AID489017]; format: functional
Chain of Sphingosine 1-phosphate receptor 3 (Q99500 whole entry): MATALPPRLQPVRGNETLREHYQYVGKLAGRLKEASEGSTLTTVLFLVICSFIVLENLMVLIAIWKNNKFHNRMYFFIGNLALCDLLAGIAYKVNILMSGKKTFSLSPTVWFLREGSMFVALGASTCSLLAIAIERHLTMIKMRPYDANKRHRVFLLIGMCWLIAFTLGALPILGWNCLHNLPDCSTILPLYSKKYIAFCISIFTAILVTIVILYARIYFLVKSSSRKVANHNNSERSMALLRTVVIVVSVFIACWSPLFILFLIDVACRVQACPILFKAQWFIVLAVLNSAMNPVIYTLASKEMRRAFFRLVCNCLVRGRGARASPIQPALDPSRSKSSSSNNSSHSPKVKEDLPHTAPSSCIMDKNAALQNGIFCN

[16] = inhibitors of intracellular T. cruzi replication, confirmation, NIH3T3 host cells, beta-gal luminescence (AID 2044); format: functional, cell-based;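 note: intracellular parasites grown in NIH/3T3 mouse fibroblasts as host cells; luminescent beta-galactosidase reporter signal from transgenic T. cruzi replicating inside host cells; inhibitors lower the luminescence signal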
[17] = target: T1, Sphingosine 1-phosphate receptor 4; assay: Late stage fluorescence dose response cell-based screening assay for antagonists of the Sphingosine 1-Phosphate Receptor 4 (S1P4). [Related pubchem assays: 1524 (Confirmation screen (S1P4 antagonists).), 1510 (Primary screen (S1P4 antagonists).), 1853 (Summary AID (S1P4 antagonists).), 1692 (Dose response screen (S1P4 antagonists).)]; format: functional
[18] = target: Sphingosine 1-phosphate receptor 5 (Homo sapiens, UniProt Q9H228); assay: Late stage counterscreen assay for S1P4 antagonists: Fluorescence dose response cell-based screening assay for antagonists of the Sphingosine 1-Phosphate Receptor 5 (S1P5). [Related pubchem assays (depositor defined):AID1510, AID1524, AID1692, AID1853, AID2332, AID489009, AID489017]; format: functional
Chain of Sphingosine 1-phosphate receptor 5 (Q9H228 whole entry): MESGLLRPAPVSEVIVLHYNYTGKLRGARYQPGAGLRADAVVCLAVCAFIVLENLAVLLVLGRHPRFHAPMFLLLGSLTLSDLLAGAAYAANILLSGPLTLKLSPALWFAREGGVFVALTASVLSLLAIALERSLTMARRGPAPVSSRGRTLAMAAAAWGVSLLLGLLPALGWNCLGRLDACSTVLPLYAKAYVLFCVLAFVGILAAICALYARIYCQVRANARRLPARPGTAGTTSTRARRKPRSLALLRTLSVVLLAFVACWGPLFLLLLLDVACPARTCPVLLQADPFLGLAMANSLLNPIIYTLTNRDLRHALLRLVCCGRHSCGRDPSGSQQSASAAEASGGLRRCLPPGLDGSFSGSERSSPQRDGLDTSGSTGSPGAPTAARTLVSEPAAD

[19] = target: T3, Sphingosine 1-phosphate receptor 2; assay: Dose Response Cell Based Assay for Agonists of the S1P2 Receptor of Purchased Analogues. [Related pubchem assays: 729, 843, 854, 736 ]; format: functional
[20] = M. tuberculosis growth inhibition, HTS (AID 449762); format: functional
[21] = target: T5, Tyrosine-protein phosphatase non-receptor type 7 (Homo sapiens, UniProt P35236); assay: inhibitors of human HePTP phosphatase, […], biochemical, absorbance, leukemia target (AID 521); format: functional
T5 sequence (P35236 whole entry): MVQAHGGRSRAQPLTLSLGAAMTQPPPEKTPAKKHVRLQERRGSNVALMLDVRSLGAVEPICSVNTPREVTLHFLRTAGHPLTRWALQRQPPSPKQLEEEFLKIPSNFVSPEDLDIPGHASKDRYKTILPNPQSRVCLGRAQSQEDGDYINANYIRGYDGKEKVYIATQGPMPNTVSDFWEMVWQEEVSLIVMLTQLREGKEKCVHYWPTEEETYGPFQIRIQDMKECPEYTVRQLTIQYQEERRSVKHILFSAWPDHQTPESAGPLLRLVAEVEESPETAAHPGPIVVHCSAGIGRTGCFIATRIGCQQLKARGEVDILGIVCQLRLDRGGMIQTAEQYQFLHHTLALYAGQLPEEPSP

Oxytocin receptor = Oxytocin receptor (Homo sapiens, UniProt P30559); assay: Fluorescence-based cell-based high throughput dose response assay for potentiators of Oxytocin Receptor (OXTR). [Related pubchem assays: 434985 (Confirmation screen (OXTR potentiators in triplicate)), 2481 (Summary (OXTR potentiators)), 2445 (Primary screen (OXTR potentiators in singlicate))]; format: functional
Chain of Oxytocin receptor (P30559 whole entry): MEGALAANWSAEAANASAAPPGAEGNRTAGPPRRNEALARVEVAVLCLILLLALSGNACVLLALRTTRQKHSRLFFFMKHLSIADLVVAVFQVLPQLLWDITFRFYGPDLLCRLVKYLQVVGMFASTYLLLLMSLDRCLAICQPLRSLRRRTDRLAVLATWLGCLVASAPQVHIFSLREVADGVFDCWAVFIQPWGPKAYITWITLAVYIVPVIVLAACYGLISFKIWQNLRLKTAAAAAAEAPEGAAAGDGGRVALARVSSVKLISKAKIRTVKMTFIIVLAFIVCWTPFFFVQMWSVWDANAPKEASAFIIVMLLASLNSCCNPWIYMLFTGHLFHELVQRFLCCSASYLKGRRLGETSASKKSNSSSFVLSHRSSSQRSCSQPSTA

[22] = target: Solute carrier family 12 member 2/member 5 (Homo sapiens, UniProt P55011+Q9H2X9); assay: KCC2 and NKCC1 inhibition by rubidium flux, cell-based, NKCC1 counter-screen (AID 1734); format: functional, HEK293

SMILES: COc1cc2c(cc1NC(=O)Nc1ccc(C)cc1)oc1ccccc12
- EC50 [1]: 1.47 µM (active)
- CC50 [2]: 26.4 µM (active)
- AC50 [3]: 1.88 µM (active)

SMILES: O=C(Nc1ccccc1)Nc1cc(OCC(F)(F)F)cc(OCC(F)(F)F)c1
- AC50 [4]: 6.97 µM (active)
- IC50 [5]: 0.26 µM (active)
- AC50 (Paired box protein Pax-8): 6.93 µM (active)
- IC50 [6]: > 49.8 µM (not active)
- EC50 (Streptococcus): 9.63 µM (active)
- EC50 [7]: 6.09 µM (active)
- IC50 [8]: 2.35 µM (active)
- AC50 [9]: 6.4 µM (active)
- EC50 (Streptokinase A): 18.1 µM (active)
- EC50 [10]: 7.18 µM (active)
- IC50 [11]: > 25 µM (inactive)
- EC50 [12]: < 6 µM (inconclusive)
- EC50 [13]: 6.81 µM (active)
- EC50 [14]: 4.56 µM (active)
- IC50 [15]: 1.68 µM (active)
- EC50 [16]: 0.719 µM (active)
- IC50 [17]: 0.0827 µM (active)
- IC50 [18]: 1.3 µM (active)

SMILES: CCNC(=O)CN(CC)CC(=O)c1cc(C)n(Cc2ccccc2)c1C
- EC50 [19]: > 30 µM (not active)

SMILES: CC1(CCc2ccccc2)N=C(S)N(c2ccc(Cl)cc2)N1 (stereo unspecified)
- IC50 [20]: > 100 µM (active)

SMILES: Brc1ccc(-c2nnc3sc(CNC4CCCC4)cn23)cc1
- IC50 [21]: > 100 µM (not active)

SMILES: Cc1cc(C)n(-c2cc(C(C)(C)C)nc3c(-c4ccc(Cl)cc4)cnn23)n1
- EC50 (Oxytocin receptor): > 29.9 µM (not active)

SMILES: O=C(O)CCn1c(SCc2cccc3ccccc23)nc2ccccc21
- IC50 [22]: 36 µM (active)
